{"source": "patent US20080038349A1", "about": "“Peptide-Pna Chimera Targeting Inducible Nitric Oxide Synthetase” (priority 2004, published 2008)", "key": {"macrophags iNOS": {"tested_on": "macrophags iNOS", "conditions": "in vitro, macrophages; cited from earlier work"}, "Multiple Sclerosis Model": {"tested_on": "Multiple Sclerosis Model", "assay": "Multiple sclerosis model (MOG 35-55 inoculated mice)", "format": "in vivo", "conditions": "10 mg/kg for 10 consecutive days", "experimental": "Mice (female, Cpb 57B1/6; Harlan) were inoculated with ecephalitogenic peptide (MOG 35-55; synthesized at the Hebrew university) emulsified with CFA and pertussis toxin (Sigma) and in the same time were treated with CH(K)6HC-O-5′CTTTCTCCTTTTCC3′-O-HAIYPRH (KBP-11; 10 mg/kg; n=3) or with vehicle solution (control group; n=4) for 10 consecutive days, starting a day after the inoculation of MOG.\nAt the end the experiment (day 30) animals were scarified and brain tissue were send to histological (H&E analysis) and immunohistochemical (iNOS expression) analysis."}, "[1]": {"tested_on": "Sense 5′-3′: GAA AGA GGA AAA GG", "assay": "Hybridization experiments (Tm from UV melting curves)", "format": "binding", "conditions": "for Tm (temperature of melting, hybridization): vs sense DNA, duplex 5 μM, 10 mM phosphate buffer, 100 mM NaCl, 0.1 mM EDTA, pH=7", "experimental": "The DNA sequences used in the hybridization experiments were purchased from (Sigma; USA). A PNA sequence was purchased from Bio-Synthesis Inc. (Lewisville, USA). All hybrid samples reported were first incubated at 90° C. for 5 minutes, then slowly cooled at room temperature. The Duplex concentration of the various samples was 5 μM. All hybridization experiments were carried out in a 10 mM phosphate buffer, 100 mM NaCl, 0.1 mM EDTA, pH=7. Temperature was monitored by an internal thermocouple, at an accuracy of ±0.3° C. Melting curves were recorded by heating the samples (1° C./min) with a 2-min. hold time by UV signal at 260 nm. Melting temperatures were taken as the maximum of the first derivative of the melting curves. UV absorbance measurements were performed on a Varian Cart 5E UV-VIS-NIR spectrophotometer equipped with a Cary temperature controller, in 1-cm quartz cells.\nThe modifications on the PNA chain although improving bioavailability can diminish activity (hybridization). To examine the effect of modifications on activity properties an experiment was conducted to examine the hybridization properties (determined by changes in temperature of melting or Tm) KBP-10 sequence. Tm value (39.5° C.) was almost the same as predicted calculated value based on sequence (40° C.)."}, "cells in culture": {"tested_on": "cells in culture", "conditions": "cited from earlier work"}, "[2]": {"conditions": "starting a day after MOG inoculation, n=3"}}, "note": "{Gly} = glycine residue at the PNA end written 3'; {Lys} = lysine residue at the PNA end written 5'", "data": [{"substance": "3′-Gly-CTTTCTCCTTTTCC-Lys 5′ (all peptide nucleic acid (PNA), 5' {Lys}, 3' {Gly}) [PNA targeting macrophage iNOS]", "values": [{"measurement": "iNOS expression", "setting": "macrophags iNOS", "result": "specifically diminished its expression"}]}, {"substance": "CH(K)6HC-O-5′CTTTCTCCTTTTCC3′-O-HAIYPRH [KBP-11]", "values": [{"measurement": "Incidence", "setting": "Multiple Sclerosis Model; [2]", "result": "1/3"}, {"measurement": "Mean disease duration", "setting": "Multiple Sclerosis Model; [2]", "result": 6, "unit": "days"}, {"measurement": "Mean Score (Disease burden)", "setting": "Multiple Sclerosis Model; clinical score 0-6", "result": "0.4 ± 0.16"}, {"measurement": "Effect of peptide modification on hybridization properties", "setting": "[1]; modified PNA vs. ODN, FIG. 1", "result": "did not affect the hybridization properties"}, {"measurement": "Tm (temperature of melting, hybridization)", "setting": "[1]", "result": 39.00, "unit": "°C"}]}, {"substance": "CHK6HC", "values": [{"measurement": "Transfection of cells in culture", "setting": "cells in culture", "result": "improved transfection of cells in culture"}]}, {"substance": "CTTTCTCCTTTTCC (chemistry not given here) [Oligodeoxynucleotide, reference compound]", "values": [{"measurement": "Tm (temperature of melting, hybridization)", "setting": "[1]", "result": 46.96, "unit": "°C"}]}]}
